# Data published in patent US9737525B2, “Small molecule activators of NRF2 pathway” (The General Hospital Corporation, priority 2013, dated 2017).
# Columns and labels:
# TNFα = TNFα protein in brain of HD mouse model R6/2; assay type: in vivo; settings: R6/2 mice, daily i.p. 50 mg/kg, 4 weeks
# Description: To assess protein levels, cell extracts were prepared from cells washed with PBS and lysed with buffer containing 2% SDS, Complete EDTA-free Protease Inhibitor Cocktail (Roche) and 1 mM phenylmethylsulfonyl fluoride. To prepare brain extracts for analysis, frozen mouse cortical tissues were homogenized in PBS containing protease inhibitors with an Kontes Pellet Pestle (Kimble/Kontes). They were later sonicated and lysed overnight at 4° C. in 2× volume of lysis buffer containing 2% SDS and protease inhibitors. Protein concentrations in ST14A cell extracts and homogenized cortical tissues were evaluated using a BCA analysis kit and normalized. Samples were prepared in a SDS buffer containing DTT and separated on bis-acrylamide protein gels via electrophoresis and transferred onto a 0.2 μm PVDF membrane). […]
# For this animal trial, the well-characterized transgenic R6/2 mouse model of HD was selected, in which severe neurological phenotypes and premature death at age of 12-13 week is conferred by expression of a human HTT exon 1 fragment containing a pathological ˜150Q repeat tract (Mangiarini et al., 1996). […] Body weights were recorded weekly at the same time of day. At 10 weeks of age, mice were sacrificed 2 hrs after the last injection; brains were removed and snap frozen in liquid nitrogen and kept frozen at −80° C. until analyzed. […]
# dopaminergic neurons = assay: MPTP mouse model of Parkinson's disease; assay type: in vivo
# Description: Male C57BL/6 mice (˜25 g) from Charles River Laboratories, Wilmington, Mass. were housed in temperature- and humidity-controlled rooms with a 12 hr dark: light cycle and had free access to food and water. Subacute MPTP paradigm (20 mg/kg i.p. injection once daily for 4 days) was employed to test dose response of MIND4 at 30 mg/kg, 60 mg/kg, or 90 mg/kg (i.p. 10 min before and 50 min after each MPTP injection). The effective dose of 60 mg/kg was used in the subsequent experiments (i.p. 10 min before and 50 min after each MPTP injection). Control animals received saline (control for MPTP) and 10% propylene glycol and 90% dextrose as vehicle for MIND4 by i.p. Mice were sacrificed 7 days after the last MPTP administration and striatal DA and metabolite HVA were determined by high performance liquid chromatography (HPLC) coupled with electrochemical detection (ECD) Immunostaining for tyrosine hydroxylase (TH), a marker for dopaminergic neurons was performed using mouse anti-TH antibody (Sigma, ST. Louis, Mo.). Total numbers of TH positive neurons in the substantia nigra (SN) were counted under blinded conditions using the Bioquant Image Analysis System (R&M Biometrics, Nashville, Tenn.).
# The protective effects of CPD4 have been confirmed in both acute and subchronic PTP paradigms by comprehensive behavioral, neurochemical, and neuropathological evaluations (FIG. 18). CPD4 was administrated i.p. at 20 mg/kg 10 min before and 50 min after MPTP 20 mg/kg i.p. once daily for 4 days (subchronic regimen) (FIG. 18A). High performance liquid chromatography (HPLC) coupled with electrochemical detection was used to show attenuated dopamine (DA) loss induced by MPTP in the striatum (FIG. 18B). Dopaminergic cell counts in the substantia nigra (SN) were also measured in treated mice and compared to the control (MPTP group) (FIG. 18C). Tyrosine hydroxylase (TH) immunostained dopaminergic neurons were also imaged in the SN (FIG. 18D).
smiles,measurement,setting,value
"O=[N+]([O-])c1ccc(Sc2nnc(COc3ccccc3)n2-c2ccccc2)c2ncccc12 [MIND4, 5-nitro-8-{[5-(phenoxymethyl)-4-phenyl-4H-1,2,4-triazol-3-yl]thio}quinoline]",TNFα protein levels in cortical extracts,TNFα,striking reduction of TNFα
same,MPTP induced DA loss in the striatum,dopaminergic neurons; 60 mg/kg i.p.,mild but significant protection
same,Residual DA and DA turnover rate (HVA/DA),dopaminergic neurons; 60 mg/kg vs MPTP group,increased level of residual DA and decreased DA turnover rate
same,Dopaminergic neurons in the SN (stereological analysis),dopaminergic neurons; vs MPTP alone group,more remaining dopaminergic neurons
